Legend:
[1] = tested on: primary cardiomyocytes isolated from ZSF1-Lean or ZSF1 Obese rats; test: Cardiomyocyte stretch longitudinal stiffness; format: cell-based, rat; conditions: 10% strain
Description: FIG. 18: Reduced longitudinal stiffness upon VASH inhibition in primary cardiomyocytes isolated from ZSF1-Lean or ZSF1 Obese rats. A) Diastolic Stiffness (elastic modulus at the initial time of peak strain) upon a 10%, 200 ms strain along the long-axis of an isolated cardiomyocyte; B) Stead state stiffness upon strain and hold, and C) stress relaxation (indicator of viscoelasticity) in ZSF1-Lean and Obese cardiomyocytes.
Either freshly isolated or cultured myocytes were diluted to a sparse density (~10×) into a large (22×50 mm) glass bottom petri dish coated with BSA to prevent myocyte adhesion with Normal Tyrodes solution. A small aliquot of Myotak™ was freshly thawed and a 1.5 uL droplet was placed in a dry area of the petri dish and allowed to polymerize (2-3 min). When the droplet had become “tacky” laser etched glass rods (Ion Optix LLC) were lowered into the solution several times to create a thin coating of Myotak which was allowed to dry for 90 seconds before the probes were submersed into the cell-containing bath. […] The Myostretcher apparatus (Ion Optix LLC) was used to stretch myocytes by roughly 10% over either a 200 ms (diastolic) or 5 s (slow) interval while force and sarcomere length were recorded using the Ion Wizard software and MyoCam imaging system (live FFT). […]

[2] = tested on: human cells
Description: FIG. 9: Cell viability assay comparing microtubule binding drugs (Parthenolide, Taxol) to SVC_01 exposure on human cells. The MTT assay is used to measure cellular metabolic activity as an indicator of cell viability, proliferation and cytotoxicity. This colorimetric assay is based on the reduction of a yellow tetrazolium salt (3-(4,5-dimethylthiazol-2-yl)-2,5-diphenyltetrazolium bromide or MTT) to purple formazan crystals by metabolically active cells.
Next, we performed safety pharmacology experiments and head-to-head compared the cellular toxicity of SVCs on human cells.

[3] = tested on: ZSF1-Lean and Obese rats; test: Myocardial tubulin detyrosination after IV injection in ZSF1 rats (western blot, immunofluorescence); format: in vivo, rat; conditions: for detyrosinated tubulin in myocardial tissue (words): IV injections, 30 weeks old ZSF1 rats, western blot
Description: FIG. 23: immunofluorescence imaging to detect tubulin detyrosination on LV tissue and evaluate changes in the abundance of detyrosinated tubulin following SVC-02 treatment.
FIG. 24: Quantification of immunofluorescence imaging analysis performed on LV tissue to evaluate changes in microtubule density (SVC-02 as VASHi).
Formalin fixed paraffin embedded (FFPE) sections on glass slides were deparaffinized by sequential washes in xylenes, and decreasing concentrations of ethanol (100%, 95%, 75%, and 50%) followed by ddH2O. Slides were placed in 1× Reveal decloaking solution (Biocare Medical, Catalog #RV1000M) for antigen retrieval. Antigen retrieval was performed using a pressure cooker (Instant Pot Pro 10-in-1 pressure cooker, 8 Quart, Amazon.com) for 15 minutes at high pressure. After cooling, slides underwent a second round of antigen retrieval in 1× Antigen Unmasking Solution, Citric Acid Based (Vector Laboratories, Catalog #H-3300-250) in a pressure cooker for 15 minutes at high pressure. Next, the slides were washed in ddH2O, followed by PBS. The slides were permeabilized with PBS+0.25% Triton X-100, followed by incubation in fish serum blocking buffer (Thermo Scientific, Catalog #37527) containing 0.1% Tween 20 for 1 hour at RT.
Sections were co-stained with Mouse monoclonal (B-5-1-2) antibody to α-tubulin (Sigma-Aldrich, Catalog #T5168; 1:50) and Rabbit polyclonal detyrosinated α-tubulin antibody (ab48389 Lot #GR3425171; 1:50) in blocking buffer for 2 days at RT. Sections were washed in PBS containing 0.1% Tween 20 (PBST) and then incubated in goat anti-rabbit conjugated to Alexa Fluor 647 and goat anti-mouse conjugated to Alexa Fluor 568 secondary antibodies along with Alexa Fluor 488 conjugated WGA (Invitrogen Catalog #W11261; final concentration 25 μg/mL) in PBST for 2 days at RT. The sections were then stained with Hoechst 33342, Trihydrochloride, Trihydrate (Invitrogen Catalog #H3570, final concentration 10 μg/mL in PBS) and mounted in Prolong Diamond Antifade Mountant (Invitrogen Catalog #P36961).
Longitudinally oriented cardiomyocytes within the myocardium were identified. Four channel Z-stacks (4×500 nm slices) of myocardial regions were imaged using a 63× oil immersion objective (1.4 NA) on a Zeiss Airyscan 880 microscope with 18.3 nm×18.3 nm pixel size. The images were background subtracted and maximum intensity projections were generated in FIJI (NIH). Rectangular ROIs were blindly drawn within the cytosolic portion of individual cardiomyocytes, while excluding the nuclei and perinuclear regions, using the WGA and Hoechst channels. The α-tubulin and detyrosinated microtubule images were extracted from the ROIs. […] The microtubule density was calculated as the percent area coverage of the binary maps within each ROI. […]

O=C(O)CCC[C@H](NC(=O)[C@H]1O[C@@H]1C(=O)C[C@@H](Cc1ccc(OCc2ccccc2)cc1)C(=O)O)C(=O)NCCc1ccccc1 [SVC_01]
viscoelastic longitudinal stiffness [1]: viscoelastic longitudinal stiffness is reduced | cell viability / proliferation (MTT) [2]: does not impact cell proliferation

CCOC(=O)[C@H](Cc1ccc(OCC)cc1)NC(=O)[C@H]1O[C@@H]1C(=O)N[C@@H](Cc1ccc(OCC)cc1)C(=O)OCC [SVC_02]
detyrosinated tubulin in myocardial tissue (words) [3]: efficient reduction in detyrosinated tubulin | detyrosinated tubulin in myocardial tissue (words) ([3]; listed as SVC-02): significantly reduced detyrosinated tubulin abundance | reduction of tubulin detyrosination in heart tissue ([3]; lean and obese animals, 8 hours following intravenous injection): about 60% | density of detyrosinated-microtubules in LV tissue ([3]; obese animals, immunofluorescence, vs vehicle): significant reduction in the density of detyrosinated-microtubules

— patent US20260199284A1, “SPECIFIC VASH COMPOUNDS (SVC) INHIBITORS FOR HEART DISEASES” (MT ACT, priority 2023, published 2026)
